# Source: patent US11840686B2, “Modulation of prekallikrein (PKK) expression” (Ionis Pharmaceuticals, Inc., priority 2013, dated 2023)
# Strand notation (5' to 3'): a small letter for the sugar, then the base; units joined by * are phosphorothioate-linked, units joined directly phosphodiester-linked; [ ] holds rarer units or linkages, { } end groups; capitals alone tell only the bases. e = 2'-O-(2-methoxyethyl) (MOE); k = constrained ethyl (cEt); [5mC] = 5-methylcytosine; d = 2'-deoxy (DNA)
# Tested on: human PKK mRNA
# Experiment: Antisense inhibition of human PKK mRNA in HepaRG cells, 1,000 nM, MOE/deoxy/cEt oligonucleotides (Example 3)
# Format: cell-based
# Details: HepaRG cells, 1,000 nM antisense oligonucleotide, Table 29
# Method: Additional antisense oligonucleotides were designed targeting a PKK nucleic acid and were tested for their effects on PKK mRNA in vitro.
# The chimeric antisense oligonucleotides in the tables below were designed as deoxy, MOE and cEt gapmers. The gapmers are 16 nucleosides in length wherein the nucleoside have either a MOE sugar modification, a cEt sugar modification, or a deoxy modification. The ‘Chemistry’ column describes the sugar modifications of each oligonucleotide. ‘k’ indicates an cEt sugar modification; the number indicates the number of deoxynucleosides; otherwise, indicates a deoxynucleoside; and ‘e’ indicates a 2′-O-methoxyethyl modification. The internucleoside linkages throughout each gapmer are phosphorothioate linkages. All cytosine residues throughout each oligonucleotide are 5-methylcytosines. “Start site” indicates the 5′-most nucleoside to which the gapmer is targeted in the human gene sequence. “Stop site” indicates the 3′-most nucleoside to which the gapmer is targeted in the human gene sequence.
# Cultured HepaRG™ cells at a density of 20,000 cells per well were transfected using electroporation with 1,000 nM antisense oligonucleotide. After a treatment period of approximately 24 hours, RNA was isolated from the cells and PKK mRNA levels were measured by quantitative real-time PCR. Human primer probe set RTS3454 was used to measure mRNA levels. ISIS 531231 was also included in this assay. PKK mRNA levels were adjusted according to total RNA content, as measured by RIBOGREEN®. The antisense oligonucleotides were tested in a series of experiments that had similar culture conditions. Results are presented as percent inhibition of PKK, relative to untreated control cells.
row,Substance,% inhibition
1,548582 (eT*eA*kG*d[5mC]*dT*d[5mC]*d[5mC]*dA*dT*dG*d[5mC]*dT*dG*kT*kG*eT; antisense) [compound 548582],59%
2,548597 (eT*eG*kA*dA*dT*dA*d[5mC]*d[5mC]*dA*dT*d[5mC]*d[5mC]*d[5mC]*k[5mC]*kG*e[5mC]; antisense) [compound 548597],50%
3,548560 (antisense e[5mC]*eA*k[5mC]*dT*dG*d[5mC]*d[5mC]*dT*dA*dG*dA*dA*dA*kG*kG*e[5mC]) [compound 548560],16%
4,548598 (eG*e[5mC]*kG*d[5mC]*d[5mC]*dA*dT*d[5mC]*dT*dG*d[5mC]*d[5mC]*d[5mC]*kT*kG*eT; antisense) [compound 548598],50%
5,548561 (antisense eT*eG*kT*dA*dG*dT*dA*dT*d[5mC]*d[5mC]*dA*dG*dA*kG*kT*eA) [compound 548561],46%
6,548607 (eT*e[5mC]*kG*dG*dT*dG*dG*dT*dG*dG*dG*dA*dT*kT*kG*eG; antisense) [compound 548607],34%
7,548546 (antisense eG*e[5mC]*k[5mC]*d[5mC]*dA*dA*dG*d[5mC]*d[5mC]*dT*dA*d[5mC]*dA*kT*kG*e[5mC]) [compound 548546],35%
8,548590 (eT*eG*kG*dT*d[5mC]*dA*dT*dG*dT*d[5mC]*dA*dA*d[5mC]*kT*kG*eT; antisense) [compound 548590],35%
9,548571 (eA*e[5mC]*kT*d[5mC]*dT*dG*dA*dG*dG*d[5mC]*d[5mC]*dT*dT*kA*kG*eG; antisense) [compound 548571],59%
10,548540 (antisense eG*eA*k[5mC]*dA*d[5mC]*d[5mC]*dT*dG*d[5mC]*dT*dT*dG*dA*kT*kT*eA) [compound 548540],7%

# Same assay, conditions: HepaRG cells, electroporation with 1,000 nM antisense oligonucleotide, approx. 24 hours, PKK mRNA by RT-PCR (RTS3454), relative to untreated control cells; Table 25 experiment
row,Substance,% inhibition
1,548176 (eG*eA*kT*d[5mC]*dT*d[5mC]*dA*dG*dT*dT*dG*d[5mC]*dG*kA*k[5mC]*e[5mC]; antisense) [compound 548176],38%
2,548184 (eA*e[5mC]*kA*dG*dT*d[5mC]*dA*dT*dG*dG*dA*dG*dA*kT*k[5mC]*eT; antisense) [compound 548184],73%

# Same assay, conditions: HepaRG cells, electroporation with 1,000 nM antisense oligonucleotide, approx. 24 hours, PKK mRNA by RT-PCR (RTS3454), relative to untreated control cells; Table 26 experiment
row,Substance,% inhibition
1,548242 (eG*e[5mC]*kA*dT*dA*d[5mC]*dT*d[5mC]*dG*d[5mC]*d[5mC]*dT*dT*kT*kG*eT; antisense) [compound 548242],25%
2,548283 (antisense eG*eG*k[5mC]*dT*dT*dA*dT*dG*d[5mC]*dT*d[5mC]*d[5mC]*dT*kT*k[5mC]*eT) [compound 548283],56%
3,548253 (antisense eT*eA*k[5mC]*dT*d[5mC]*dG*d[5mC]*d[5mC]*dT*dT*dT*dG*dT*kG*kA*eT) [compound 548253],8%

# Same assay, conditions: HepaRG cells, electroporation with 1,000 nM antisense oligonucleotide, approximately 24 hours, primer probe set RTS3454, relative to untreated control cells; experiment of Table 23
row,Substance,% inhibition
1,547950 (eG*eG*kT*dG*dT*dT*dT*dT*d[5mC]*dT*dT*dG*dA*kG*kG*eA; antisense) [compound 547950],49%
2,547965 (antisense eG*eG*kG*dT*dT*d[5mC]*dA*dG*dG*dT*dA*dA*dA*kG*kT*eT) [compound 547965],29%
3,547936 (eG*eA*k[5mC]*dT*d[5mC]*dG*dA*dT*dT*dT*dT*d[5mC]*d[5mC]*kA*kT*eA; antisense) [compound 547936],44%

# Same assay, conditions: HepaRG cells, electroporation with 1,000 nM antisense oligonucleotide, approximately 24 hours, primer probe set RTS3454, relative to untreated control cells; experiment of Table 24
row,Substance,% inhibition
1,548018 (e[5mC]*e[5mC]*kA*dA*dG*dA*dA*dG*dA*dG*dT*dT*dT*kG*kT*eT; antisense) [compound 548018],22%
2,548049 (eG*e[5mC]*kG*dA*dT*dA*dT*d[5mC]*dA*dT*dG*dA*dT*kT*k[5mC]*e[5mC]; antisense) [compound 548049],62%
3,548041 (eT*eG*kT*dG*dA*dG*dA*dA*dA*dG*dG*dT*dG*kT*kA*eT; antisense) [compound 548041],64%
4,548040 (eG*eT*kG*dA*dG*dA*dA*dA*dG*dG*dT*dG*dT*kA*kT*e[5mC]; antisense) [compound 548040],62%

# Same assay, conditions: PKK mRNA, HepaRG cells, 1,000 nM antisense oligonucleotide; Table 31
row,Substance,% inhibition
1,548614 (antisense eT*eG*kG*dT*dG*dG*d[5mC]*dG*dG*dG*dA*dT*d[5mC]*kG*kG*eT) [compound 548614],0%
2,548628 (antisense eG*eT*kA*dT*dG*dG*d[5mC]*dA*dG*dA*dG*d[5mC]*d[5mC]*k[5mC]*k[5mC]*eT) [compound 548628],9%

# Same assay, conditions: Table 19; HepaRG cells, electroporation with 1,000 nM antisense oligonucleotide, approximately 24 hours; PKK mRNA by RT-PCR (RTS3454), relative to untreated control cells
row,Substance,% inhibition
1,548121 (antisense eT*e[5mC]*kT*dG*dG*dA*d[5mC]*dT*dG*d[5mC]*dT*dT*d[5mC]*kT*k[5mC]*eA) [compound 548121],64%
2,548118 (antisense eT*e[5mC]*kT*d[5mC]*dA*dT*dG*d[5mC]*dT*dG*dG*dT*dG*kA*k[5mC]*eT) [compound 548118],47%

# Same assay, conditions: Table 20; HepaRG cells, electroporation with 1,000 nM antisense oligonucleotide, approximately 24 hours; PKK mRNA by RT-PCR (RTS3454), relative to untreated control cells
row,Substance,% inhibition
1,547891 (eA*eT*kT*dG*dT*dT*d[5mC]*d[5mC]*dG*dG*dT*dA*d[5mC]*kT*k[5mC]*eT; antisense) [compound 547891],84%
2,547863 (antisense eT*eG*kA*d[5mC]*dT*d[5mC]*d[5mC]*dT*d[5mC]*dT*d[5mC]*dA*dT*kA*kT*e[5mC]) [compound 547863],73%
3,547881 (eA*eT*kT*d[5mC]*dT*dT*d[5mC]*dA*dA*d[5mC]*dA*d[5mC]*dT*kG*k[5mC]*eT; antisense) [compound 547881],0%

# Same assay, conditions: Table 21 experiment; HepaRG cells, electroporation with 1,000 nM antisense oligonucleotide, approx. 24 hours; PKK mRNA by RT-PCR (RTS3454), relative to untreated control cells
row,Substance,% inhibition
1,547784 (antisense eG*e[5mC]*kT*dT*dG*dA*dA*dT*dA*dA*dA*dA*dT*k[5mC]*kA*eT) [compound 547784],46%
2,547789 (antisense eG*eA*kA*dA*dT*dA*dA*dG*dT*dT*dG*d[5mC]*dT*kT*kG*e[5mC]) [compound 547789],20%
3,547842 (antisense eG*eA*kT*dG*dA*d[5mC]*d[5mC]*dA*d[5mC]*dA*dT*dT*dG*k[5mC]*kT*eT) [compound 547842],10%
4,547753 (eA*eT*kG*dA*dA*d[5mC]*dG*dG*dT*d[5mC]*dT*dT*d[5mC]*kA*kA*eG; antisense) [compound 547753],3%
5,547820 (eT*e[5mC]*kA*dT*dT*dG*dA*dT*dT*dG*dA*dA*d[5mC]*kT*kT*eG; antisense) [compound 547820],0%
6,547804 (eG*eT*kG*dT*dA*d[5mC]*dA*dT*dG*dG*dA*dA*dG*k[5mC]*kT*eA; antisense) [compound 547804],22%

# Same assay, conditions: Table 22 experiment; HepaRG cells, electroporation with 1,000 nM antisense oligonucleotide, approx. 24 hours; PKK mRNA by RT-PCR (RTS3454), relative to untreated control cells
row,Substance,% inhibition
1,547895 (eA*eG*kG*d[5mC]*dA*dA*dT*dT*dG*dT*dT*d[5mC]*d[5mC]*kG*kG*eT; antisense) [compound 547895],94%
2,547891 (eA*eT*kT*dG*dT*dT*d[5mC]*d[5mC]*dG*dG*dT*dA*d[5mC]*kT*k[5mC]*eT; antisense) [compound 547891],88%
3,547863 (antisense eT*eG*kA*d[5mC]*dT*d[5mC]*d[5mC]*dT*d[5mC]*dT*d[5mC]*dA*dT*kA*kT*e[5mC]) [compound 547863],77%
4,547881 (eA*eT*kT*d[5mC]*dT*dT*d[5mC]*dA*dA*d[5mC]*dA*d[5mC]*dT*kG*k[5mC]*eT; antisense) [compound 547881],50%

# Same assay, conditions: Table 27; HepaRG cells, 1,000 nM antisense oligonucleotide; human PKK mRNA
row,Substance,% inhibition
1,548319 (e[5mC]*e[5mC]*kT*d[5mC]*dA*dT*d[5mC]*dT*d[5mC]*dA*dG*dT*dA*kT*kG*eA; antisense) [compound 548319],26%

# Same assay, conditions: Table 28; HepaRG cells, 1,000 nM antisense oligonucleotide; human PKK mRNA
row,Substance,% inhibition
1,548511 (antisense eA*eG*k[5mC]*dT*dA*dG*d[5mC]*dT*dG*dA*d[5mC]*d[5mC]*d[5mC]*k[5mC]*kA*eA) [compound 548511],16%
2,548514 (antisense eT*e[5mC]*kG*dA*dG*dG*dA*d[5mC]*dA*dG*d[5mC]*d[5mC]*d[5mC]*k[5mC]*k[5mC]*eA) [compound 548514],40%

# Same assay, conditions: Table 30; human PKK mRNA, HepaRG cells, 1,000 nM antisense oligonucleotide
row,Substance,% inhibition
1,548385 (eT*e[5mC]*k[5mC]*dT*dG*dG*dA*dG*dG*d[5mC]*dA*d[5mC]*d[5mC]*kA*kA*eT; antisense) [compound 548385],0%
2,548431 (antisense eT*eA*k[5mC]*d[5mC]*dT*dA*dT*dA*dA*d[5mC]*dT*d[5mC]*dT*kA*kA*e[5mC]) [compound 548431],9%
3,548458 (eA*e[5mC]*k[5mC]*dT*dA*dT*dA*dA*d[5mC]*dT*dA*dT*dA*kA*k[5mC]*eA; antisense) [compound 548458],0%
4,548455 (e[5mC]*eA*k[5mC]*d[5mC]*dG*dT*dA*d[5mC]*dT*dA*dG*dT*dT*kT*k[5mC]*e[5mC]; antisense) [compound 548455],64%
